Source: article PMC12096666, “Synthesis, in vitro and in silico studies of a novel chrysin-ferrocene Schiff base with potent anticancer activity via G1 arrest, caspase-dependent apoptosis and inhibition of topoisomerase II” (Journal of Enzyme Inhibition and Medicinal Chemistry, 2025)
Values joined by “and” are separate entries in the source; they are usually repeats but may differ in a detail not shown here. Identical values can stand only once. Values belong to the molecule of their own block, whether it stands above or below them.

Legend:
CDK2 = target: T1, CDK2 (Homo sapiens, UniProt P24941); assay: CDK2 kinase assay; type: biochemical; conditions: mean ± SD of three experiments
T1 construct: purchased BPS Bioscience
Experimental: (§1) CDK2 kinase assay was performed using the CDK2 kinase assay kit (BPS Bioscience, USA) as previously described. The EGFR kinase assay was performed in 96-well plates coated with PGT (poly l-glutamic acid l-tyrosine, Sigma Aldrich, USA) using the EGFR kinase assay kit (BPS Bioscience, USA) and was conducted as previously described. The VEGFR-2 kinase assay was carried out in 96-well streptavidin coated plate using recombinant human VEGFR-2/KDR ELISA kit as previously described. The tropomyosin receptor kinases (TRK) inhibition assay was performed using TrkA assay kit (BPS Bioscience, USA) as per the manufacturer’s instructions. Topoisomerase II assay was performed using the human topoisomerase II relaxation assay kit (Inspiralis, UK) which involved relaxing supercoiled pBR322 DNA substrate by the enzyme. The relaxation assay was conducted as per the manufacturer’s instructions and as previously reported.

EGFR = target: T2, EGFR (Homo sapiens, UniProt P00533); assay: EGFR kinase assay; type: biochemical; conditions: mean ± SD of three experiments
T2 construct: purchased BPS Bioscience
T2 sequence (P00533 25-1210): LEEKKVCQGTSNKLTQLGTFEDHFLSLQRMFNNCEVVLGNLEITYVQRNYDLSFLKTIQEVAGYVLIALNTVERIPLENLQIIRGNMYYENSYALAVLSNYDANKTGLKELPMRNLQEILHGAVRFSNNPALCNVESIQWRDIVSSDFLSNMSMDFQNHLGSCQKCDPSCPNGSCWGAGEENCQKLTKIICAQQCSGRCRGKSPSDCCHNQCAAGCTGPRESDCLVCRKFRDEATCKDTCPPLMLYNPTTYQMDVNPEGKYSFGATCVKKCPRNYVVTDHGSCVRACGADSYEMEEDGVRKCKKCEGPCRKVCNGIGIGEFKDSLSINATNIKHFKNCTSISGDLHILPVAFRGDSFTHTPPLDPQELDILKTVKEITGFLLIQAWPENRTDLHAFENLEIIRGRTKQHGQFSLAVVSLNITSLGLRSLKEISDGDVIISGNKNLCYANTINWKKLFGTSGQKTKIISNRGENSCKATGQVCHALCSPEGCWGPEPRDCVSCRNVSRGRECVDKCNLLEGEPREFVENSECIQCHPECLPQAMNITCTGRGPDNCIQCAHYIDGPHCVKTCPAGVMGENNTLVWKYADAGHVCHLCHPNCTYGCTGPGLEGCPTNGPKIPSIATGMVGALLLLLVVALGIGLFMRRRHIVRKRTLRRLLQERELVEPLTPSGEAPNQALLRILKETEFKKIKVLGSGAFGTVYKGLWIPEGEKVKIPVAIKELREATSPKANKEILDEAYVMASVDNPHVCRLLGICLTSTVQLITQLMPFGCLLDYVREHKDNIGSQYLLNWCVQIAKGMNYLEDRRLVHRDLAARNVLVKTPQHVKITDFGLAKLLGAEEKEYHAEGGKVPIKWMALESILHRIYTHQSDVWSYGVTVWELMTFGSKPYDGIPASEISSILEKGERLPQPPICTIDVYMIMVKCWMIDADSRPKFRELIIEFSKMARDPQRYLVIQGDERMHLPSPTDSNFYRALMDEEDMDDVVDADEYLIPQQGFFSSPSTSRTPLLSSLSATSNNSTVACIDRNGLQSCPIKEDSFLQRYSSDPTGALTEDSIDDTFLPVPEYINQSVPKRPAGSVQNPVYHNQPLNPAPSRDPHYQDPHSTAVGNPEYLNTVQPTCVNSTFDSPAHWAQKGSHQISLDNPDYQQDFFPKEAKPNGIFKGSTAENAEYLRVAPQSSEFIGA
Experimental: as §1

TrkA = target: T3, TrkA (Homo sapiens, UniProt P04629); assay: TrkA inhibition assay; type: biochemical; conditions: mean ± SD of three experiments
T3 construct: purchased BPS Bioscience
T3 sequence (P04629 33-796): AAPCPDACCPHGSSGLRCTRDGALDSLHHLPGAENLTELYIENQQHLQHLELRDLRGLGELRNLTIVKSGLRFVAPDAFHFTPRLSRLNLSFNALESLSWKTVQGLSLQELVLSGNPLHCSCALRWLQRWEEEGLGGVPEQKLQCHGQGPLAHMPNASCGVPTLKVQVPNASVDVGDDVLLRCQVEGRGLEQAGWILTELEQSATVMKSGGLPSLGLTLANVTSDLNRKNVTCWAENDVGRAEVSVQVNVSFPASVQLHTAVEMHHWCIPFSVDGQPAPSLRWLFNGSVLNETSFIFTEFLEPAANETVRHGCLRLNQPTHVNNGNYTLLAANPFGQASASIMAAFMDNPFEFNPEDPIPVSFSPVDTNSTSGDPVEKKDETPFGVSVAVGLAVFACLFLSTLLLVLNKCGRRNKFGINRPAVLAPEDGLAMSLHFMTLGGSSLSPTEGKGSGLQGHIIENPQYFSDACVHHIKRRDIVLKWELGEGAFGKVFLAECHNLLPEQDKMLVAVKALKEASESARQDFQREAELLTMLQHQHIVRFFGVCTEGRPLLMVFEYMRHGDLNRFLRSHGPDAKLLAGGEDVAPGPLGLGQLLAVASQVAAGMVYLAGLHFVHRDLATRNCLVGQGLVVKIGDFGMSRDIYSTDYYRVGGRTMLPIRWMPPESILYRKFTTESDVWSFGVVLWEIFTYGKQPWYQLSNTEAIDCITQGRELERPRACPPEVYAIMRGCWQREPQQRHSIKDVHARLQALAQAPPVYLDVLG
Experimental: as §1

VEGFR = target: T4, VEGFR (Homo sapiens, UniProt P35968); assay: VEGFR-2 kinase assay; type: biochemical; conditions: mean ± SD of three experiments
T4 construct: purchased
T4 sequence (P35968 20-1356): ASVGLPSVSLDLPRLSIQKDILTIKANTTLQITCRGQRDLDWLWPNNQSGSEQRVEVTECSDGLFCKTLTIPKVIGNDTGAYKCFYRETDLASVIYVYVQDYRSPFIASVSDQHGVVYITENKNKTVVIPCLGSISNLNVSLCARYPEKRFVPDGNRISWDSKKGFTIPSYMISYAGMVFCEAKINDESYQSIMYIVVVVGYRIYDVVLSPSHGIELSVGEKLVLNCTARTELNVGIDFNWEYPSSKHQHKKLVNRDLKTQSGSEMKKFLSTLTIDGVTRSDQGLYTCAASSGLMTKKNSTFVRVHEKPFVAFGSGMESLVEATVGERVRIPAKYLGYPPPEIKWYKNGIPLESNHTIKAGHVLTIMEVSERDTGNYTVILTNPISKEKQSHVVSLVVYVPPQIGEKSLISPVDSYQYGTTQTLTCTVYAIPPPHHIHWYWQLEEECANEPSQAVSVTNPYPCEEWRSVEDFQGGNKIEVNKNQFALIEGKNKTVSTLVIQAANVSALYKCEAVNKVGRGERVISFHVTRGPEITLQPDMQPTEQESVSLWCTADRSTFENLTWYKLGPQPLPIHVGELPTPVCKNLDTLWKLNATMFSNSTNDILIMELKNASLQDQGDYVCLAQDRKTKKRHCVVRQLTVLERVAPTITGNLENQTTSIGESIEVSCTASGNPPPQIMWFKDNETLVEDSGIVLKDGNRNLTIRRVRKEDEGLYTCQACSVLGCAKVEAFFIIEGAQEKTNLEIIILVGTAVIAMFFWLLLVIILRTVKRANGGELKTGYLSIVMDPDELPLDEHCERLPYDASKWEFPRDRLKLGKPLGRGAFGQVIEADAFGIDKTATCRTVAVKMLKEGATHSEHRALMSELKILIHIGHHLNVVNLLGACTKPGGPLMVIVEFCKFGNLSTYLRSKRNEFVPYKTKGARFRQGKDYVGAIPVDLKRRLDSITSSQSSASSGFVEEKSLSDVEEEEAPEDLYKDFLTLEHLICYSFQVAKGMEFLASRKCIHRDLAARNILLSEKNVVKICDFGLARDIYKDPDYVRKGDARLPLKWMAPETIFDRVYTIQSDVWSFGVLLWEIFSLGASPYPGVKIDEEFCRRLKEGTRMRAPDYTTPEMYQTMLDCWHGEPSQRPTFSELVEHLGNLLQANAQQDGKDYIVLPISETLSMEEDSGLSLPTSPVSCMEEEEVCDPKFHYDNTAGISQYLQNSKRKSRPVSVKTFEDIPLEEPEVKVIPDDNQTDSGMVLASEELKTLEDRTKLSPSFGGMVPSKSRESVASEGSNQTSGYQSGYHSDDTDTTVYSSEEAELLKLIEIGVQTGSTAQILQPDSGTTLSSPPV
Experimental: as §1

human topoisomerase II = assay: Human topoisomerase II relaxation assay (pBR322); type: biochemical; conditions: relaxation of supercoiled pBR322 DNA; mean ± SD of three experiments
Experimental: as §1
The potential inhibition of topoisomerase II by CFSB was evaluated using human topoisomerase II assay. This assay involves measuring the ability of topoisomerase II enzyme to relax supercoiled DNA (pBR322)[68].

tubulin = target: T5, tubulin (Sus scrofa, UniProt P02550+P02554); assay: Tubulin polymerisation assay; type: biochemical; conditions: fluorescence, tubulin from porcine brain; mean ± SD of three experiments
T5 construct: polymerisation of tubulin, isolated from porcine brain tissue; purchased Cytoskeleton, Inc; host or cells: porcine brain tissue
T5 sequence (P02554 whole entry): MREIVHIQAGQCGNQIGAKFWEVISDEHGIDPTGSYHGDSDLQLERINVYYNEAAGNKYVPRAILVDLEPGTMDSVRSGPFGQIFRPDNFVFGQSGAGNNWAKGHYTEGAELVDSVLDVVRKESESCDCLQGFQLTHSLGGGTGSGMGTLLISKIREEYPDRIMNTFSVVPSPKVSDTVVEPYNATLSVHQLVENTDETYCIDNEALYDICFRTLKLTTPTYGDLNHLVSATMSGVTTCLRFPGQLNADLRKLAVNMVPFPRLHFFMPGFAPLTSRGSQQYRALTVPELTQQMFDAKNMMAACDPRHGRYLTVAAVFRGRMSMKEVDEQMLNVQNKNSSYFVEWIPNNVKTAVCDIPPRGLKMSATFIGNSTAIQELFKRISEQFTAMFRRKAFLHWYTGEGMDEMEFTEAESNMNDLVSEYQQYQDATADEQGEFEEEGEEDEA
T5 sequence (P02550 whole entry): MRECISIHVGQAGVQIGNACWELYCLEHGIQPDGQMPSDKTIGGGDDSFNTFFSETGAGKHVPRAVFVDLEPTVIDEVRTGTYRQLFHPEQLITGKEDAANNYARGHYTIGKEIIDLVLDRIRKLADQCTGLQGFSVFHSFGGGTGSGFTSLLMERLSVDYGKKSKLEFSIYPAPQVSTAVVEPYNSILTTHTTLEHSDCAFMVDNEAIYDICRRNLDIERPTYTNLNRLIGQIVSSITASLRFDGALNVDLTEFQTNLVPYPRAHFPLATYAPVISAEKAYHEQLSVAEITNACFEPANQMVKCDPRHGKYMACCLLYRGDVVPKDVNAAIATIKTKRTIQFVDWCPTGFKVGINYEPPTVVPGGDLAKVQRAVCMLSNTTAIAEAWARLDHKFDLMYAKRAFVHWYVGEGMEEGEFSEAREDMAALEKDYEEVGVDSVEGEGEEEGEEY
Experimental: The assay was performed using the tubulin polymerisation assay kit (Cytoskeleton, Inc, USA) as per the manufacturer’s instructions and as previously reported. […] Polymerisation dose-response curves were obtained by measuring changes in fluorescence intensity at each compound concentration. Fluorescence was measured at an excitation of 360 nm and emission of 450 nm using a Tecan-spark reader.
A tubulin polymerisation assay was used in order to assess the potential of CFSB as a tubulin polymerisation inhibitor. The assay involved observing the polymerisation of tubulin, isolated from porcine brain tissue, in the presence of CFSB. Changes in polymerisation were monitored via changes in fluorescence intensity.

MDA-MB-231 = conditions: triple negative breast cancer cell line; values as low as; cited from earlier work
HCT116 cells = assay: MTT cell viability assay, HCT116; type: cell-based; conditions: Homo sapiens, HCT-116, 72 h, mean ± SD of three experiments
Experimental: (§2) Liver cancer (HepG2), colon cancer (HCT116), lung cancer (A549), breast cancer (MCF7) and normal lung (MRC5) cells were obtained from ATCC (Rockville, USA). Cells were cultured in RPMI-1640 enriched with 10% foetal calf serum and 50 µg/ml gentamycin. They were incubated at 37 °C in a humidified environment containing 5% CO2 and passaged 2–3 times/week.
(§3) The MTT assay was conducted as previously reported. Cell lines were seeded at 5x10^4 cells/well and incubated for 24 h. CFSB was added in twelve concentrations, alongside vehicle controls and vinblastine sulphate as a positive control. After 72 h of incubation, cell viability was assessed using the MTT assay. Media was replaced, followed by the addition of MTT solution. DMSO was later added and optical density was measured at 590 nm using a microplate reader (TECAN, USA). IC50 values were calculated using Graphpad Prism (San Diego, USA). The experiment was repeated three times.

HepG2 cells = assay: MTT cell viability assay, HepG2; type: cell-based; conditions: Homo sapiens, 72 h, mean ± SD of three experiments
Experimental: as §2, §3

A549 cells = assay: MTT cell viability assay, A549; type: cell-based; conditions: Homo sapiens, 72 h, mean ± SD of three experiments
Experimental: The MTT assay was conducted as previously reported[20]. Cell lines were seeded at 5x10^4 cells/well and incubated for 24 h. […] After 72 h of incubation, cell viability was assessed using the MTT assay. Media was replaced, followed by the addition of MTT solution. DMSO was later added and optical density was measured at 590 nm using a microplate reader (TECAN, USA). IC50 values were calculated using Graphpad Prism (San Diego, USA). The experiment was repeated three times.

MCF7 cells = assay: MTT cell viability assay, MCF7; type: cell-based; conditions: Homo sapiens, 72 h, mean ± SD of three experiments
Experimental: as §2, §3

SMILES: Oc1cc(O)c2c(=N[C]34[CH]5[CH]6[CH]7[CH]3[Fe]6754389%10[CH]4[CH]3[CH]8[CH]9[CH]4%10)cc(-c3ccccc3)oc2c1 (stereo not drawn) [CFSB, cyclopenta-2,4-dien-1-yl(5-((5,7-dihydroxy-2-phenyl-4H-chromen-4-ylidene)amino)cyclopenta-2,4-dien-1-yl)iron]
IC50 (CDK2): > 100 µM
IC50 (EGFR): > 100 µM
IC50 (TrkA): > 100 µM
IC50 (VEGFR): > 100 µM
IC50 (human topoisomerase II): 20 µM and 20.1 µM
IC50 (tubulin): 76 µM and 76.4 µM

SMILES: O=C(COc1cc(O)c2c(=O)cc(-c3ccccc3)oc2c1)N/N=C/c1ccc(O)cc1O [Chrysin-De-allyl-Pac-1]
IC50 (MDA-MB-231): ≥ 5.98 µM

IC50 (HCT116 cells): 3.16 ± 0.38 µM
SMILES: COc1cccc2c1C(=O)c1c(O)c3c(c(O)c1C2=O)C[C@@](O)(C(=O)CO)C[C@@H]3O[C@H]1C[C@H](N)[C@H](O)[C@H](C)O1 [Doxorubicin]

IC50 (HepG2 cells): 0.89 ± 0.1 µM
IC50 (HCT116 cells): 1.75 ± 0.19 µM
IC50 (A549 cells): 4.15 ± 0.31 µM
IC50 (MCF7 cells): 2.27 ± 0.25 µM
SMILES: CC[C@]1(O)C[C@@H]2CN(CCc3c([nH]c4ccccc34)[C@@](C(=O)OC)(c3cc4c(cc3OC)N(C)[C@H]3[C@@](O)(C(=O)OC)[C@H](OC(C)=O)[C@]5(CC)C=CCN6CC[C@]43[C@@H]65)C2)C1 [Vinblastine sulphate]
